Test results as given in patent US9249378B2, “Aqueous cleaning compositions having enhanced properties” (Eastman Chemical Company, priority 2013, dated 2016).

Assay: Solvent vapor pressure at 20° C.
Settings: not given
Description: The solvents used to formulate these compositions, along with a few select physical properties of each solvent, are summarized in Table 2, below.

Row | Molecule | Solvent Vapor Pressure at 20° C. [torr]
1 | CCC(C)OC(=O)CC(C)O (stereo not shown) [2-butyl 3-hydroxybutyrate] | 0.098
2 | OCc1ccccc1 [Benzyl Alcohol] | 0.076

Next, values leading:

Row | Solvent Vapor Pressure at 20° C. [torr] | Molecule
3 | 0.12 | CCOCCOCCO [Diethylene Glycol Monoethyl Ether]
4 | 0.08 | CC(C)COC(=O)CC(C)O (stereo not shown) [i-butyl 3-hydroxybutyrate]
5 | 0.17 | CC(O)CC(=O)OC(C)C (stereo not shown) [i-propyl 3-hydroxybutyrate, isopropyl 3-hydroxybutyrate]
6 | 0.06 | CCCCOC(=O)CC(C)O (stereo not shown) [n-butyl 3-hydroxybutyrate]

Same assay, conditions: neat solvent, 20° C.

Row | Molecule | Solvent Vapor Pressure at 20° C. [torr]
7 | CCCCOCCOCCO [Diethylene Glycol Monobutyl Ether] | 0.02
8 | CCCCOCCO [Ethylene glycol monobutyl ether] | 0.60
9 | C=C(C)[C@H]1CC=C(C)CC1 [d-limonene] | 1.5
10 | dibasic ester | 0.20
